Literature values in publication PMC8302504, “Efficacy of Fenfluramine and Norfenfluramine Enantiomers and Various Antiepileptic Drugs in a Zebrafish Model of Dravet Syndrome” (Neurochemical Research, 2021).

Details: 5 dpf zebrafish larvae, 1 h incubation with 15 µg/mL; cited from earlier work

O=C(CCCN1CCC(O)(c2ccc(Cl)cc2)CC1)c1ccc(F)cc1 [haloperidol]
head uptake (recovered concentration): 21.6 µg/g
